Results from patent US8481561B2, “Classes of GABAA/BZR ligands” (Innovationspatent Sverige AB, priority 2008, dated 2013).
pKi: −log10 of the molar value.

Tests used:
[1] = molecular target: benzodiazepine receptor; assay: Displacement of 3H-flumazenil binding in rat cortical tissue (receptor binding); conditions: 3H-Flumazenil binding in vitro, rat cortical membranes; mean of three determinations
Method: Affinity of test substances for the benzodiazepine receptor was determined in vitro by displacement of ^3H-flumazenil in rat cortical tissue.

Row | melting point | pKi [1] | Structure (SMILES)
1 | 330 °C | 8.72 | Cc1ccc(-c2nsc3[nH]c4ccc(C)cc4c(=O)c23)cc1 [Compound 19, 6-Methyl-3-(4-methylphenyl)isothiazolo[5,4-b]quinolin-4(9H)-one]
2 | – | 8.70 | CCCC(=O)Nc1nsc2[nH]c3ccc(C)cc3c(=O)c12 [Compound 31, N-(6-methyl-4-oxo-4,9-dihydroisothiazolo[5,4-b]quinolin-3-yl)butanamide]

Further lines, the compound ahead of its results:

Row | Structure (SMILES) | melting point | pKi [1]
3 | Cc1ccc2[nH]c3snc(-c4ccc(Br)cc4)c3c(=O)c2c1 [Compound 21, 3-(4-Bromophenyl)-6-methylisothiazolo[5,4-b]quinolin-4(9H)-one] | 357 °C | 8.28
4 | COc1ccc(-c2nsc3[nH]c4ccc(C)cc4c(=O)c23)cc1 [Compound 22, 3-(4-Methoxyphenyl)-6-methylisothiazolo[5,4-b]quinolin-4(9H)-one] | – | 8.70
5 | Cc1ccc2[nH]c3snc(-c4ccc([N+](=O)[O-])cc4)c3c(=O)c2c1 [Compound 23, 6-Methyl-3-(4-nitrophenyl)-isothiazolo[5,4-b]quinolin-4(9H)-one] | 343 °C | 8.26
6 | Cc1ccc(-c2nsc3[nH]c4ccc(Br)cc4c(=O)c23)cc1 [Compound 24, 6-Bromo-3-(4-methylphenyl)isothiazolo[5,4-b]quinolin-4(9H)-one] | 331 °C | 8.54
7 | Cc1ccc2[nH]c3onc(-c4ccccc4)c3c(=O)c2c1 [Compound 26, 6-Methyl-3-phenyl-isoxazolo[5,4-b]quinolin-4(9H)-one] | – | 7.74
